From patent US11161852B1 (Halia Therapeutics, Inc., priority 2020, dated 2021)

Biological target: full-length recombinant human NEK7 (Homo sapiens (Human), UniProt Q8TDX7)
Test: NEK7 Enzymatic Assay ([33P]-ATP, casein substrate)
Type: biochemical
Description: Casein substrate (from bovine milk, hydrolyzed and partially dephosphorylated mixture of α, β and a caseins, obtained from Sigma Aldrich, catalogue #C4765, diluted in distilled water to a final concentration of 1 mg/mL) and full-length recombinant human NEK7 (expressed by baculovirus in Sf9 insect cells using a N-terminal GST tag, obtained from SignalChem, catalogue #N09-10G, 0.1 μg/μL) were mixed in assay buffer (20 mM Hepes pH 7.5, 10 mM MgCl2, 1 mM EGTA, 0.02% Brij35, 0.02 mg/ml BSA, 0.1 mM Na3VO4, 2 mM DTT, 1% DMSO). Compounds of interest (serial 3-fold dilution in DMSO from 10 μM to 0.5 nM) or vehicle (1% DMSO) were dispensed into the kinase reaction mixture by Acoustic technology (Echo550; nanoliter range). After incubation at room temperature for 20 minutes, the kinase reaction was initiated by addition of [^33P]-ATP (specific activity […]) and the mixture was incubated at room temperature for 2 hours. The reaction was then stopped by spotting the reaction mixture on strips of phosphocellulose P81 paper. Following washing, the radioactivity of the P81 paper was measured and kinase activity data were expressed as the percent remaining kinase activity in test samples compared to vehicle reactions. IC50 values and curve fits were obtained using Prism (GraphPad Software).

Chain of full-length recombinant human NEK7 (Q8TDX7 whole entry): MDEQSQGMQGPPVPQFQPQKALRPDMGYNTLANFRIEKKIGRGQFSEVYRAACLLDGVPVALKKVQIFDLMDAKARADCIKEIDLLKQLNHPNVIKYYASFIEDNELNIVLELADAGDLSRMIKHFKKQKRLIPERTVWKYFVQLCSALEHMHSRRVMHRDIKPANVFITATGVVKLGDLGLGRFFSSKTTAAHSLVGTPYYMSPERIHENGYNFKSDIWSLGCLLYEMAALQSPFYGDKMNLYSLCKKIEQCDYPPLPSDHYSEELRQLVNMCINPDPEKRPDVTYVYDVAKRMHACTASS

| SMILES | IC50 [nM] |
| --- | --- |
| Nc1ncnc2c1c(-c1ccc(NC(=O)Nc3cc(C4(C(F)(F)F)CC4)on3)c(F)c1)cn2CCO [Example 61, 1-(4-(4-amino-7-(2-hydroxyethyl)-7H-pyrrolo[2,3-d]pyrimidin-5-yl)-2-fluorophenyl)-3-(5-(1-(trifluoromethyl)cyclopropyl)isoxazol-3-yl)urea] | < 150 |
| CC(C)(c1cc(NC(=O)Nc2ccc(-c3cn(C4CC4)c4ncnc(N)c34)cc2F)on1)C(F)(F)F [Example 12, 1-(4-(4-amino-7-cyclopropyl-7H-pyrrolo[2,3-d]pyrimidin-5-yl)-2-fluorophenyl)-3-(3-(1,1,1-trifluoro-2-methylpropan-2-yl)isoxazol-5-yl)urea] | 151 to 300 |
| Cc1cc(NC(=O)Nc2ccc(-c3cn(C4CC4)c4ncnc(N)c34)cc2F)no1 [Example 8, 1-(4-(4-amino-7-cyclopropyl-7H-pyrrolo[2,3-d]pyrimidin-5-yl)-2-fluorophenyl)-3-(5-methylisoxazol-3-yl)urea] | 501 to 1500 |
| Nc1ncnc2c1c(-c1c(F)cc(NC(=O)Nc3cc(C4(C(F)(F)F)CC4)no3)cc1F)cn2C1CC1 [Example 43, 1-(4-(4-amino-7-cyclopropyl-7H-pyrrolo[2,3-d]pyrimidin-5-yl)-3,5-difluorophenyl)-3-(3-(1-(trifluoromethyl)cyclopropyl)isoxazol-5-yl)urea] | > 1500 |
| COc1cc(-c2cn(C3CC3)c3ncnc(N)c23)ccc1NC(=O)Nc1cc(C2(C(F)(F)F)CC2)no1 [Example 55, 1-(4-(4-amino-7-cyclopropyl-7H-pyrrolo[2,3-d]pyrimidin-5-yl)-2-methoxyphenyl)-3-(3-(1-(trifluoromethyl)cyclopropyl)isoxazol-5-yl)urea] | > 1500 |
| Nc1ncnc2c1c(-c1ccc(NC(=O)Nc3cc(C4(C(F)(F)F)CC4)no3)c(Cl)c1)cn2C1CC1 [Example 54, 1-(4-(4-amino-7-cyclopropyl-7H-pyrrolo[2,3-d]pyrimidin-5-yl)-2-chlorophenyl)-3-(3-(1-(trifluoromethyl)cyclopropyl)isoxazol-5-yl)urea] | > 1500 |
| CC(C)(C)c1cc(NC(=O)Nc2ccc(-c3cn(C4CC4)c4ncnc(N)c34)cc2)on1 [Example 13, 1-(4-(4-amino-7-cyclopropyl-7H-pyrrolo[2,3-d]pyrimidin-5-yl)phenyl)-3-(3-(tert-butyl)isoxazol-5-yl)urea] | 301 to 500 |
| CC(C)(C)c1cc(NC(=O)Nc2ccc(-c3cn(C4COC4)c4ncnc(N)c34)cc2)on1 [Example 1, 1-(4-(4-amino-7-(oxetan-3-yl)-7H-pyrrolo[2,3-d]pyrimidin-5-yl)phenyl)-3-(3-(tert-butyl)isoxazol-5-yl)urea] | 151 to 300 |
| Nc1ncnc2c1c(-c1ccc(NC(=O)Nc3cc(C4(C(F)(F)F)CC4)on3)c(F)c1)cn2C1CCC1 [Example 58, 1-(4-(4-amino-7-cyclobutyl-7H-pyrrolo[2,3-d]pyrimidin-5-yl)-2-fluorophenyl)-3-(5-(1-(trifluoromethyl)cyclopropyl)isoxazol-3-yl)urea] | 501 to 1500 |
| Nc1ncnc2c1c(-c1ccc(NC(=O)Nc3cc(C4(C(F)(F)F)CC4)no3)cc1F)cn2C1CC1 [Example 11, 1-(4-(4-amino-7-cyclopropyl-7H-pyrrolo[2,3-d]pyrimidin-5-yl)-3-fluorophenyl)-3-(3-(1-(trifluoromethyl)cyclopropyl)isoxazol-5-yl)urea] | 301 to 500 |
| CC(C)c1cc(NC(=O)Nc2ccc(-c3cn(C4CC4)c4ncnc(N)c34)cc2F)on1 [Example 32, 1-(4-(4-amino-7-cyclopropyl-7H-pyrrolo[2,3-d]pyrimidin-5-yl)-2-fluorophenyl)-3-(3-isopropylisoxazol-5-yl)urea] | < 150 |
| Nc1ncnc2c1c(-c1cnc(NC(=O)Nc3cc(C4(C(F)(F)F)CC4)no3)nc1)cn2C1CC1 [Example 48, 1-(5-(4-amino-7-cyclopropyl-7H-pyrrolo[2,3-d]pyrimidin-5-yl)pyrimidin-2-yl)-3-(3-(1-(trifluoromethyl)cyclopropyl)isoxazol-5-yl)urea] | > 1500 |
| Nc1ncnc2c1c(-c1ccc(NC(=O)Nc3cc(C(F)(F)F)no3)c(F)c1)cn2C1CC1 [Example 28, 1-(4-(4-amino-7-cyclopropyl-7H-pyrrolo[2,3-d]pyrimidin-5-yl)-2-fluorophenyl)-3-(3-(trifluoromethyl)isoxazol-5-yl)urea] | 151 to 300 |
| Nc1ncnc2c1c(-c1cnc(NC(=O)Nc3cc(C4(C(F)(F)F)CC4)no3)c(F)c1)cn2C1CC1 [Example 44] | 501 to 1500 |
| Nc1ncnc2c1c(-c1ccc(NC(=O)Nc3cc(C4(C(F)(F)F)CCC4)on3)c(F)c1)cn2C1CC1 [Example 57, 1-(4-(4-amino-7-cyclopropyl-7H-pyrrolo[2,3-d]pyrimidin-5-yl)-2-fluorophenyl)-3-(5-(1-(trifluoromethyl)cyclobutyl)isoxazol-3-yl)urea] | < 150 |
| Nc1ncnc2c1c(-c1ccc(NC(=O)Nc3cc(C4(C(F)(F)F)CC4)no3)c(F)c1)cn2CCO [Example 52, 1-(4-(4-amino-7-(2-hydroxyethyl)-7H-pyrrolo[2,3-d]pyrimidin-5-yl)-2-fluorophenyl)-3-(3-(1-(trifluoromethyl)cyclopropyl)isoxazol-5-yl)urea] | < 150 |
| N#Cc1cc(-c2cn(C3CC3)c3ncnc(N)c23)ccc1NC(=O)Nc1cc(C2(C(F)(F)F)CC2)no1 [Example 50, 1-(4-(4-amino-7-cyclopropyl-7H-pyrrolo[2,3-d]pyrimidin-5-yl)-2-cyanophenyl)-3-(3-(1-(trifluoromethyl)cyclopropyl)isoxazol-5-yl)urea] | > 1500 |
| CC(C)(C)c1nnc(NC(=O)Nc2ccc(-c3cn(C4CC4)c4ncnc(N)c34)cc2F)s1 [Example 19, 1-(4-(4-amino-7-cyclopropyl-7H-pyrrolo[2,3-d]pyrimidin-5-yl)-2-fluorophenyl)-3-(5-(tert-butyl)-1,3,4-thiadiazol-2-yl)urea] | 301 to 500 |
| CC(C)(C)c1cc(NC(=O)Nc2ccc(-c3cn(C4CC4)c4ncnc(N)c34)cc2F)sn1 [Example 20, 1-(4-(4-amino-7-cyclopropyl-7H-pyrrolo[2,3-d]pyrimidin-5-yl)-2-fluorophenyl)-3-(3-(tert-butyl)isothiazol-5-yl)urea] | > 1500 |
| CC(C)(C)c1nsc(NC(=O)Nc2ccc(-c3cn(C4CC4)c4ncnc(N)c34)cc2F)n1 [Example 21, 1-(4-(4-amino-7-cyclopropyl-7H-pyrrolo[2,3-d]pyrimidin-5-yl)-2-fluorophenyl)-3-(3-(tert-butyl)-1,2,4-thiadiazol-5-yl)urea] | > 1500 |
| Nc1ncnc2c1c(-c1cc(F)c(NC(=O)Nc3cc(C4(C(F)(F)F)CC4)on3)c(F)c1)cn2C1CC1 [Example 60, 1-(4-(4-amino-7-cyclopropyl-7H-pyrrolo[2,3-d]pyrimidin-5-yl)-2,6-difluorophenyl)-3-(5-(1-(trifluoromethyl)cyclopropyl)isoxazol-3-yl)urea] | > 1500 |
| CC(C)(O)Cn1cc(-c2ccc(NC(=O)Nc3cc(C4(C(F)(F)F)CC4)no3)nc2)c2c(N)ncnc21 [Example 46, 1-(5-(4-amino-7-(2-hydroxy-2-methylpropyl)-7H-pyrrolo[2,3-d]pyrimidin-5-yl)pyridin-2-yl)-3-(3-(1-(trifluoromethyl)cyclopropyl)isoxazol-5-yl)urea] | < 150 |
| CC(C)(C)c1cc(NC(=O)Nc2ccc(-c3cn(C4CC4)c4ncnc(N)c34)cc2F)no1 [Example 4, 1-(4-(4-amino-7-cyclopropyl-7H-pyrrolo[2,3-d]pyrimidin-5-yl)-2-fluorophenyl)-3-(5-(tert-butyl)isoxazol-3-yl)urea] | < 150 |
| Nc1ncnc2c1c(-c1ccc(NC(=O)Nc3cc(C4(C(F)(F)F)CC4)no3)cn1)cn2C1CC1 [Example 59, 1-(6-(4-amino-7-cyclopropyl-7H-pyrrolo[2,3-d]pyrimidin-5-yl)pyridin-3-yl)-3-(3-(1-(trifluoromethyl)cyclopropyl)isoxazol-5-yl)urea] | > 1500 |
| Nc1ncnc2c1c(-c1ccc(NC(=O)Nc3cc(C4(C(F)(F)F)CCC4)no3)c(F)c1)cn2C1CC1 [Example 45, 1-(4-(4-amino-7-cyclopropyl-7H-pyrrolo[2,3-d]pyrimidin-5-yl)-2-fluorophenyl)-3-(3-(1-(trifluoromethyl)cyclobutyl)isoxazol-5-yl)urea] | 151 to 300 |
| CCC(C)c1cc(NC(=O)Nc2ccc(-c3cn(C4CC4)c4ncnc(N)c34)cc2F)on1 (centres unmarked) [Example 30, 1-(4-(4-amino-7-cyclopropyl-7H-pyrrolo[2,3-d]pyrimidin-5-yl)-2-fluorophenyl)-3-(3-(sec-butyl)isoxazol-5-yl)urea] | 151 to 300 |
| CC(C)(C)c1cc(NC(=O)NC2CCC(c3cn(C4CC4)c4ncnc(N)c34)CC2)on1 (centres unmarked) [Example 16, 1-(4-(4-amino-7-cyclopropyl-7H-pyrrolo[2,3-d]pyrimidin-5-yl)cyclohexyl)-3-(3-(tert-butyl)isoxazol-5-yl)urea] | > 1500 |
| CN1CCC(n2cc(-c3ccc(NC(=O)Nc4cc(C5(C(F)(F)F)CC5)no4)c(F)c3)c3c(N)ncnc32)CC1 [Example 26, 1-(4-(4-amino-7-(1-methylpiperidin-4-yl)-7H-pyrrolo[2,3-d]pyrimidin-5-yl)-2-fluorophenyl)-3-(3-(1-(trifluoromethyl)cyclopropyl)isoxazol-5-yl)urea] | 301 to 500 |
| CC(C)(CO)c1cc(NC(=O)Nc2ccc(-c3cn(C4CC4)c4ncnc(N)c34)cc2F)on1 [Example 29, 1-(4-(4-amino-7-cyclopropyl-7H-pyrrolo[2,3-d]pyrimidin-5-yl)-2-fluorophenyl)-3-(3-(1-hydroxy-2-methylpropan-2-yl)isoxazol-5-yl)urea] | 301 to 500 |
